# Assay results: paper PMC11062922 (Nature Chemical Biology, 2023)
# Several values for one entry are separate records, joined by “and”; a condition that tells them apart may be missing. Equal entries are not always repeated. Where two headings read alike, the source gives them in different places.
# What was measured:
# MAP3K5 = biological target: T1, MAP3K5 (Homo sapiens, UniProt Q99683); test: Kinobeads two-dose competition binding: MAP3K5; conditions: Drugmatrix - all 2, read-out: apparent Kd MAP3K5
# T1 construct: endogenous in cells
# T1 sequence (Q99683 whole entry): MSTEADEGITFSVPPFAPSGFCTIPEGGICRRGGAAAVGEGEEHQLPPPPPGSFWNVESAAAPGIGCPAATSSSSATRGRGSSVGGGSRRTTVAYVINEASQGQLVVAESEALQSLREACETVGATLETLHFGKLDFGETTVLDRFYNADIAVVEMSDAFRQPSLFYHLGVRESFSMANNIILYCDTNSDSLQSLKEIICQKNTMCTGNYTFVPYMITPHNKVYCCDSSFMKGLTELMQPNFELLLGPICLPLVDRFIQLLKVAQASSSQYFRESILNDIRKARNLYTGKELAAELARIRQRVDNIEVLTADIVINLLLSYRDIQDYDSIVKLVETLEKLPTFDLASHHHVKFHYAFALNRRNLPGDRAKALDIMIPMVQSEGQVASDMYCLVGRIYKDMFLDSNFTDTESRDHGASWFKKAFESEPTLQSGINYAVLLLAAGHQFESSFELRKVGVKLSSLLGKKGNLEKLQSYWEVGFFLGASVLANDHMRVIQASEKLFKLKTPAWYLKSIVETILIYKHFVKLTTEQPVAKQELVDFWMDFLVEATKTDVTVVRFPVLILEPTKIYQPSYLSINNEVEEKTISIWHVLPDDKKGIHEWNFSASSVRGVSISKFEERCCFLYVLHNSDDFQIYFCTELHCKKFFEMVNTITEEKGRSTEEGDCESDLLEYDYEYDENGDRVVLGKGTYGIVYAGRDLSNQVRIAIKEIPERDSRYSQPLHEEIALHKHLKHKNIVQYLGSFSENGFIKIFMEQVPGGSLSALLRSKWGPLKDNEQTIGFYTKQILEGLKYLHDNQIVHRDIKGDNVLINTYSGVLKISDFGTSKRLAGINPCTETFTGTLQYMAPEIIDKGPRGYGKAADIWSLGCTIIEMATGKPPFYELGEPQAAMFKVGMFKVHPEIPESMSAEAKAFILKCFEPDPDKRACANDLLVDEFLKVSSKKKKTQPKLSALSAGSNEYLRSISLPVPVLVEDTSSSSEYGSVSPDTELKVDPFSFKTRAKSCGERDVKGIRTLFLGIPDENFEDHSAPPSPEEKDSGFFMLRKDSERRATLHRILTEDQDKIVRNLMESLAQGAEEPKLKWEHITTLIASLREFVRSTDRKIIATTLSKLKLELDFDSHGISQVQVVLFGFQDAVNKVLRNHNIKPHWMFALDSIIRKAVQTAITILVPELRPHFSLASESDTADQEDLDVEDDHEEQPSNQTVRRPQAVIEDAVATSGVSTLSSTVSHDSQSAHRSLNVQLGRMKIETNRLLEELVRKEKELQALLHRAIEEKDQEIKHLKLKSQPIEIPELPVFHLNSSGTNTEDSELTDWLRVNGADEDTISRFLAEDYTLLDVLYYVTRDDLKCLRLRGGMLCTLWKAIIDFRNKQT
# PRKCB = biological target: T2, PRKCB (Homo sapiens, UniProt P05771); test: Kinobeads full dose-response competition binding: PRKCB; conditions: Gene Name PRKCB
# T2 construct: endogenous in cells
# T2 sequence (P05771 whole entry): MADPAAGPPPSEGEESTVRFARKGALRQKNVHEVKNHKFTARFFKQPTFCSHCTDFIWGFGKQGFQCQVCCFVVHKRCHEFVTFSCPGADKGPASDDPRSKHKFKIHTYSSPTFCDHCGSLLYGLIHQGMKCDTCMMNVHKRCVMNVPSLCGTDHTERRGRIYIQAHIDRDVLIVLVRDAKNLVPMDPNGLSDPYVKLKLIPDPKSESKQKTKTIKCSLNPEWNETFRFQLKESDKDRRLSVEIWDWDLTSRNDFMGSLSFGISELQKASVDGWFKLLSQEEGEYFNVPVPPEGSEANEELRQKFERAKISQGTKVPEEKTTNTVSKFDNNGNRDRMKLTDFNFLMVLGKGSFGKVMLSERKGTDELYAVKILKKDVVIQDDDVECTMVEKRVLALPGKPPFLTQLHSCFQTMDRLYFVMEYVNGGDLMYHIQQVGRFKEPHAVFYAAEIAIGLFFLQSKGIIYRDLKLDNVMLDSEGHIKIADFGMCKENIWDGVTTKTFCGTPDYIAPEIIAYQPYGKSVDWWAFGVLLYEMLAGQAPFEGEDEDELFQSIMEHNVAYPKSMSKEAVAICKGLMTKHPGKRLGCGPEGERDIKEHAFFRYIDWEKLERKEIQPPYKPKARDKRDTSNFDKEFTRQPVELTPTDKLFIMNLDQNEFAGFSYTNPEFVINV
# MOB1A = biological target: T3, MOB1A (Homo sapiens, UniProt Q9H8S9); test: Kinobeads full dose-response competition binding: MOB1A; conditions: Gene Name MOB1A
# T3 construct: to maximize the representation of endogenous proteins; endogenous in cells
# T3 sequence (Q9H8S9 2-216 limits assumed): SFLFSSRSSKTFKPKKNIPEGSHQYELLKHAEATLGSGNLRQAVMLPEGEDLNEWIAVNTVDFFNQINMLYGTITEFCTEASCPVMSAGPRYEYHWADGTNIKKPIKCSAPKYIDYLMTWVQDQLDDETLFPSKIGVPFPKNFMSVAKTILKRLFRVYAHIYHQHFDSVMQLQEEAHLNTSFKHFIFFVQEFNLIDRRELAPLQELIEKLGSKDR
# T3 sequence (O95835 1-1130 partner): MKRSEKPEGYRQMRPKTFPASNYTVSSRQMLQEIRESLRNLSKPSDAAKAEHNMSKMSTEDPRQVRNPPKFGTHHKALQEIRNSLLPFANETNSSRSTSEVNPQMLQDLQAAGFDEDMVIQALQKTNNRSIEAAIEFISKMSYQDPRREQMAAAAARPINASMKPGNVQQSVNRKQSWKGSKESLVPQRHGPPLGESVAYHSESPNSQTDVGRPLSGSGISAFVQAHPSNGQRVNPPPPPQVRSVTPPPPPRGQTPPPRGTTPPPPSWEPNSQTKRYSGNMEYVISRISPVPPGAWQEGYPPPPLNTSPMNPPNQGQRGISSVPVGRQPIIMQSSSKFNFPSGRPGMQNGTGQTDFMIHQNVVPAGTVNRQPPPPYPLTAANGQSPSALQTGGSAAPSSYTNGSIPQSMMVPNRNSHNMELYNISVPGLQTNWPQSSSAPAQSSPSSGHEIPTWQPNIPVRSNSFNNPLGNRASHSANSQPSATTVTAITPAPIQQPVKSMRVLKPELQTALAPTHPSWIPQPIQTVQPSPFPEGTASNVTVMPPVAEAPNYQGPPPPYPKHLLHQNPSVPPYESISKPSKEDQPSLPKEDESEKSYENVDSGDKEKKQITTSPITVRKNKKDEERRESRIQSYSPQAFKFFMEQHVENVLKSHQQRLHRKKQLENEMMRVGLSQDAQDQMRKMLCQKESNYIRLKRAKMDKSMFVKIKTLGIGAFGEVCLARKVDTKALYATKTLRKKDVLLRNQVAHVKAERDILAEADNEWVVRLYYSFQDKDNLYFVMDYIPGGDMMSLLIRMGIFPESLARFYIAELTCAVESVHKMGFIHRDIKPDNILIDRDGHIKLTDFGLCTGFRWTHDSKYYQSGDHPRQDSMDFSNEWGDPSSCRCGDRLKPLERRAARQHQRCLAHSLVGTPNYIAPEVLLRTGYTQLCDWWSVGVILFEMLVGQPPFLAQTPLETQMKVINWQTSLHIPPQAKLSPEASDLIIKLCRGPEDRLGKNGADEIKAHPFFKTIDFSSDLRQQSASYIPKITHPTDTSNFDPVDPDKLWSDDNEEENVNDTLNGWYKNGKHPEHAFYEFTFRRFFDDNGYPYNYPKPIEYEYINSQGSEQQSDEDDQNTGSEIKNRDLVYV
# CSNK2A1 = biological target: T4, CSNK2A1 (Homo sapiens, UniProt P68400); test: NanoBRET in-cell target engagement in HEK293T cells: CSNK2A1; format: cell-based
# T4 construct: full-length PKN3, CSNK2A1 or CSNK2A2 ORF; host or cells: HEK293T
# T4 sequence (P68400 whole entry): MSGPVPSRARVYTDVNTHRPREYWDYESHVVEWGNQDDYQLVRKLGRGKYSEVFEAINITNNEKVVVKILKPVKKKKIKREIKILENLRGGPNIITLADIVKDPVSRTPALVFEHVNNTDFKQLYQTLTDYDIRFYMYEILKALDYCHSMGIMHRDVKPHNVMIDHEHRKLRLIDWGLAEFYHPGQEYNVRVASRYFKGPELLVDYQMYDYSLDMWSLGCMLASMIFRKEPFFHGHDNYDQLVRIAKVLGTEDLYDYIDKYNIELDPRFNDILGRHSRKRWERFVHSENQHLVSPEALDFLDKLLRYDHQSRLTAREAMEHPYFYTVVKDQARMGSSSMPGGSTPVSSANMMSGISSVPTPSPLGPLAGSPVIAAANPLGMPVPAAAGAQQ
# Method: The NanoBRET assay was performed as described previously[28],[58]. In brief, full-length PKN3, CSNK2A1 or CSNK2A2 ORF (PKN3 vector was a kind gift of Promega, Vectors for […]: NV2981, NV1191) cloned in frame with a C-terminal NanoLuc-fusion, respectively, were transfected into HEK293T cells using FuGENE HD (Promega, E2312) and proteins were allowed to express for 20 h. Serially diluted inhibitor and NanoBRET Kinase Tracer K5 (Promega, N2530) at 500 nM (PKN3) or NanoBRET Kinase Tracer K10 (Promega, N2840) at 500 nM ([…]) were pipetted into 384-well plates using an Echo acoustic dispenser (Labcyte). The PKN3, CSNK2A1 or CSNK2A2 transfected cells were added at a density of 2 × 10^5 cells per ml after trypsinization and resuspending in Opti-MEM without phenol red (Life Technologies). The system was allowed to equilibrate for 2 h at 37 °C and 5% CO2 before BRET measurements. BRET signaling was measured by adding NanoBRET NanoGlo Substrate and Extracellular NanoLuc Inhibitor (Promega) according to the manufacturer’s protocol. Filtered luminescence was measured on a PHERAstar plate reader (BMG Labtech) equipped with a luminescence filter pair (450 nm BP filter (donor) and 610 LP filter (acceptor)). Competitive displacement data were then graphed using GraphPad Prism software (v.5.01) using a three-parameter curve fit with the following equation Y=bottom+(top−bottom)/1+10^logIC50−X×hillslope
# Experiments were performed with at least two biological and two technical replicates.
# NTRK1 = biological target: T5, NTRK1 (Homo sapiens, UniProt P04629); test: Kinobeads competition binding, Lestaurtinib control replicates: NTRK1; conditions: read-out: Lestaurtinib Drugmatrix value, NTRK1; Gene Name NTRK1; one column per experiment number and replicate (R1-R3)
# T5 construct: endogenous in cells
# T5 sequence (P04629 33-796): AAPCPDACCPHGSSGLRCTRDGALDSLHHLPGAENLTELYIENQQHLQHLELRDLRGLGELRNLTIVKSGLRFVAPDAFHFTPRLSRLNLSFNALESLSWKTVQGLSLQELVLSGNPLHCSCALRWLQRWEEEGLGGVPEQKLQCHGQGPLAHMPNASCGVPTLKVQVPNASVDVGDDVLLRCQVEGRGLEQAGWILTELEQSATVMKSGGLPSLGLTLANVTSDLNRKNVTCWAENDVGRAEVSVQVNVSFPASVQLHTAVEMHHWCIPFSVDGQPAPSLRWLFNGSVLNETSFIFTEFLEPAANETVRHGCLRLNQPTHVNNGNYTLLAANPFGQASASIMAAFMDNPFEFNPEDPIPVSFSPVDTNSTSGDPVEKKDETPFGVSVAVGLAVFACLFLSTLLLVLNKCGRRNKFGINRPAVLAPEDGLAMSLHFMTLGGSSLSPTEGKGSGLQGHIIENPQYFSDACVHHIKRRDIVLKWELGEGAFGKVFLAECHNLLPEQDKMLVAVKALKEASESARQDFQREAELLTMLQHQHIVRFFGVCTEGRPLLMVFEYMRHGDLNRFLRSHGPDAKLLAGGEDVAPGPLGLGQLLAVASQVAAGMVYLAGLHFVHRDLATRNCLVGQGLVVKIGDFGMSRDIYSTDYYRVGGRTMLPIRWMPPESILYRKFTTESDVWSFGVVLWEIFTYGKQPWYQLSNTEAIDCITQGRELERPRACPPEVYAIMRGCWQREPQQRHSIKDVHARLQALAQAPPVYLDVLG
# ERCC2 = test: Kinobeads two-dose competition binding: ERCC2; set-up: species or system human; conditions: read-out: Lestaurtinib Drugmatrix value, Gene Name ERCC2; target ERCC2; each column = one Lestaurtinib control replicate (batch_R1-R3)
# [1] = EC50 with Correction, doses in nM, read-out: apparent Kd
# [2] = eight-dose curve fit, doses in nM
smiles,measurement,setting,value
CC(C)N1CC(=O)N(C)c2cnc(Nc3cccc(S(=O)(=O)CCN4CCOCC4)c3)nc21 [BI00009348],potency estimated from few doses,MAP3K5,> 1000 nM
CCn1c(-c2nonc2N)nc2c(C#CC(C)(C)O)nc(OCCN)cc21 [GSK902056A],Relative Intensity 0.3nM,"PRKCB; 0.3nM compound, DMSO = 1",1.022
same,Relative Intensity 1nM,"PRKCB; 1nM compound, DMSO = 1",1.013
same,Relative Intensity 3nM,"PRKCB; 3nM compound, DMSO = 1",1.059
same,Relative Intensity 10nM,"PRKCB; 10nM compound, DMSO = 1",1.038
same,Relative Intensity 30nM,"PRKCB; 30nM compound, DMSO = 1",0.9653
same,Relative Intensity 100nM,"PRKCB; 100nM compound, DMSO = 1",0.9
same,Relative Intensity 300nM,"PRKCB; 300nM compound, DMSO = 1",0.7943
same,Relative Intensity 1000nM,"PRKCB; 1000nM compound, DMSO = 1",0.5993
same,Kd,PRKCB; [1],401 nM
same,EC50,PRKCB; [2],410 nM
same,Relative Intensity 0.3nM,"MOB1A; 0.3nM compound, DMSO = 1",1.163
same,Relative Intensity 1nM,"MOB1A; 1nM compound, DMSO = 1",0.99
same,Relative Intensity 3nM,"MOB1A; 3nM compound, DMSO = 1",1.359
same,Relative Intensity 10nM,"MOB1A; 10nM compound, DMSO = 1",0.9582
same,Relative Intensity 30nM,"MOB1A; 30nM compound, DMSO = 1",0.9019
same,Relative Intensity 100nM,"MOB1A; 100nM compound, DMSO = 1",0.7347
same,Relative Intensity 300nM,"MOB1A; 300nM compound, DMSO = 1",0.3297
same,Relative Intensity 1000nM,"MOB1A; 1000nM compound, DMSO = 1",0
same,Kd,MOB1A; [1],223 nM
same,EC50,MOB1A; [2],223 nM
COc1cc(Nc2ncc3c(C)nc(-c4cc5ccccc5[nH]4)n3n2)cc(OC)c1OC [GW869516X],IC50,"CSNK2A1; CSNK2A1, replicate 1, read-out: NanoBRET Rep1",471 nM
same,IC50,"CSNK2A1; CSNK2A1, replicate 2, read-out: NanoBRET Rep2",421 nM
same,IC50,"CSNK2A1; HEK293T cells, in-cell target engagement, read-out: IC50 CSNK2A1 NanoBRET",446 nM
C[C@]12O[C@H](C[C@]1(O)CO)n1c3ccccc3c3c4c(c5c6ccccc6n2c5c31)CNC4=O [Lestaurtinib],potency estimated from few doses,NTRK1,772 nM
same,potency estimated from few doses,ERCC2,161 nM and 261 nM
